Activity calls are given as the source filed them. Where only a bound is given, the exact number is not on record here.

The target of data set [1] is Transient receptor potential cation channel subfamily V member 1 (Homo sapiens) (UniProt Q8NER1). In words: Antagonist activity at human TRPV1 inhibition of capsaicin-induced channel activation at <= 30 uM. To be noted: dose microM <=30.
For data set [2], the target named is T1, Transient receptor potential cation channel subfamily M member 8 (Homo sapiens, UniProt Q7Z2W7). In words: Antagonist activity at recombinant human TRPM8 transfected in HEK293 cells assessed as assessed as inhibition of icilin-induced intracellular calcium flux. It is filed as cell-based. In general terms: Calcium assays in cells follow changes in intracellular calcium, usually with a dye or a luminescent sensor.
Target sequence in this assay (Q7Z2W7 whole entry): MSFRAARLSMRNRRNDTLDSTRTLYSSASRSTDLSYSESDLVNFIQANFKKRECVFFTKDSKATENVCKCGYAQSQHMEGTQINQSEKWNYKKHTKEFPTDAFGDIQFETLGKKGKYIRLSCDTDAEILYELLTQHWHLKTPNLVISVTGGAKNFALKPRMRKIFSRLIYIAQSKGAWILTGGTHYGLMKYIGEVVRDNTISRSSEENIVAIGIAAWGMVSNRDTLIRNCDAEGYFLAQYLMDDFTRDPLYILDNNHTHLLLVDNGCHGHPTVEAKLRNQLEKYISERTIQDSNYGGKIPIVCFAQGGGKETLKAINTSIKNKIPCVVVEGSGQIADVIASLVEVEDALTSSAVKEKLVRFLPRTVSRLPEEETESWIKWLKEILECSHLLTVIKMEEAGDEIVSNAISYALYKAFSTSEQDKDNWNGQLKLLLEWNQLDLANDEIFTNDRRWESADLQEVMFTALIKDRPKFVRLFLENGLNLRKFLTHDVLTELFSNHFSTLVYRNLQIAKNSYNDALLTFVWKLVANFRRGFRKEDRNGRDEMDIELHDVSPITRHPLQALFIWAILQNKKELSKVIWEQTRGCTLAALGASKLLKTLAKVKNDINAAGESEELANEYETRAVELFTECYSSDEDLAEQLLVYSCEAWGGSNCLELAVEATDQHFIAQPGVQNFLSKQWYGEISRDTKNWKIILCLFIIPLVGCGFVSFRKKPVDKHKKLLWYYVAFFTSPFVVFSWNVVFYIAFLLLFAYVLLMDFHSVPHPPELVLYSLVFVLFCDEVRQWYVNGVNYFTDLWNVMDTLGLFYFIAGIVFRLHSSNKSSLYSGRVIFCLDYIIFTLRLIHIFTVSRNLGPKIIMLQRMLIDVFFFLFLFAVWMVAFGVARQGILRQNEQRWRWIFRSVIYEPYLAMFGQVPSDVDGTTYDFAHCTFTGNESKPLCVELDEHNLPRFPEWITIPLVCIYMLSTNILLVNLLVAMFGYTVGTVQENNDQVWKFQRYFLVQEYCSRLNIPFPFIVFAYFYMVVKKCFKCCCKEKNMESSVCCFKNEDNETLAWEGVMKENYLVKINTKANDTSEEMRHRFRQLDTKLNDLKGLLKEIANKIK

Data set [3] is described as follows: Metabolic stability in human liver microsomes assessed as half life in presence of NADPH. In kind it is ADME, Microsome. A general note: Microsomes from liver hold many membrane-bound enzymes, among them those of drug oxidation.
For data set [4], the target named is T1, Transient receptor potential cation channel subfamily M member 8. As to the kind of experiment: Antagonist activity at recombinant human TRPM8 transfected in HEK293 cells assessed as assessed as inhibition of icilin-induced intracellular calcium flux at 0.5 uM relative to control. It is filed as cell-based. To be noted: filed as antagonist.
Target sequence in this assay (Q7Z2W7 whole entry, looked up): as the sequence (Q7Z2W7 whole entry) above
Data set [5] is described as follows: Metabolic stability in human liver microsomes assessed as intrinsic clearance in presence of NADPH. In kind it is ADME, Microsome.
In a further data set the test system is HepG2. In words: Cytotoxicity against human HepG2 cells assessed as reduction in cell viability at 100 uM. To be noted: hepg2, 100 µM. It is filed as cell-based.

Chain of Transient receptor potential cation channel subfamily V member 1 (Homo sapiens) (Q8NER1 whole entry): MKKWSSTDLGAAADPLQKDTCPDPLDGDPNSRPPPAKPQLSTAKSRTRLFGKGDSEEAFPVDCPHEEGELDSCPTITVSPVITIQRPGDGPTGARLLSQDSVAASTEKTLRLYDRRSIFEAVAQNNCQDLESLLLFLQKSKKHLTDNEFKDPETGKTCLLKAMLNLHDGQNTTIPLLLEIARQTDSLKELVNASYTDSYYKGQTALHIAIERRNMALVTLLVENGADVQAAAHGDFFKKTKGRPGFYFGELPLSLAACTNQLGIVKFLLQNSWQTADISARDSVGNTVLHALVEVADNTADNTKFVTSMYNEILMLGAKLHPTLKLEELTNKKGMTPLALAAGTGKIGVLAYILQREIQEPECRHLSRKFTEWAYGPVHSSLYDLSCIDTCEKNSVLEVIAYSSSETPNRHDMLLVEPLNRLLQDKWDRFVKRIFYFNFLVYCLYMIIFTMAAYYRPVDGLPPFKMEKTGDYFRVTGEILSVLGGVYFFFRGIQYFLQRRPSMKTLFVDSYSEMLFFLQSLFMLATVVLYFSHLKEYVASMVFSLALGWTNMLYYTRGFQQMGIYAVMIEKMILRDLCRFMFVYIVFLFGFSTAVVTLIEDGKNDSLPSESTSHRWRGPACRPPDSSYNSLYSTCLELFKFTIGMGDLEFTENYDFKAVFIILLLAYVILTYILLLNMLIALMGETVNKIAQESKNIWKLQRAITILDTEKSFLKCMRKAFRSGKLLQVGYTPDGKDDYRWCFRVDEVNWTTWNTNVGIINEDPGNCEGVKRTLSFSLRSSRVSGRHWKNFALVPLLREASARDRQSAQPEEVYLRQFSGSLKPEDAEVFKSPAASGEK

With `CCOC(=O)CCCc1[nH]nnc1-c1nc(-c2cccc(F)c2)sc1C(=O)OCC`, in data set [1], the result was inactive. Regarding `O=C(O)CCCc1cc2nc(-c3cccc(F)c3)sc2c(=O)[nH]1`, the result in data set [1] was inactive. Regarding `CCOC(=O)/C=C/Oc1nc(-c2ccc(C)cc2)sc1C(=O)OCC`, the IC50 – broadly, the concentration needed to halve the response being measured – in data set [2] came to 1130 nM. Also, the result in data set [1] was inactive. The half-life (in general, the time needed for the level to fall by half in the phase considered) in data set [3] is below 10 min.

On to `COc1cc(CN(CCN)C(=O)c2cccs2)ccc1OCc1ccccc1`, for which the inhibition (usually the share of the control response that was lost under treatment) in data set [4] worked out at 98.3%. For `CCOC(=O)CCCC#Cc1nc(-c2cccc(F)c2)sc1C(=O)OCC`, the outcome in data set [1] was inactive. Still for that read-out and setting: with `O=C(O)CCCc1cc2nc(-c3cccc(F)c3)sc2c(=O)o1` the entry was “inactive”. Take `CCOC(=O)c1sc(-c2cccc(F)c2)nc1C#CCCCC(=O)O`: in data set [2], the IC50 stood at 4060 nM. Further, the result in data set [1] was inactive. Further, the CLH in data set [5] was found to be 0.13 mL/min/g. In addition, the Activity result in the data set on HepG2 is recorded as “Non-Toxic”.

For the origin of these results see ChEMBL document CHEMBL5030549, “Design, synthesis and biological evaluation of new thiazole scaffolds as potential TRPM8 antagonists” (Bioorg Med Chem Lett, 2021).
